Results published in patent US11192888B2, “Antibacterial compounds” (priority 2017, dated 2021).
Values after ≈ are worked out from the molar mass of the structure shown. Values joined by “and” are separate entries in the source; they are usually repeats but may differ in a detail not shown here. Identical values can stand only once. Like-named read-outs stand apart in the source and are kept apart here. *1 amine or outer side, *2 acyl side, *3 side chain or, on linkers, in order; H or OH if unused. Where a SMILES comes first, the peptide text is derived from it. [ ]: non-standard residue; d: D form. dAla(ψthiazole) = C[C@@H](N[*:1])c1nc(C(=O)[*:2])cs1; Trp(4-Br) = N[C@@H](Cc1c[nH]c2cccc(Br)c12)C(=O)O; Dhb = C/C=C(\N)C(=O)O; Sar = CNCC(=O)O

Tests used:
[1] = test system: C. difficile BI1 (BI/NAP1, ribotype 027); assay: Hamster model of C. difficile-associated disease; assay type: in vivo, Golden Syrian hamsters
[2] = test system: Escherichia coli ATCC 25922
[3] = test system: Bacteroides fragilis ATCC 25285; conditions: Bacteroides fragilis, ATCC25285
[4] = test system: Enterobacter cloacae NCTC 13406
[5] = test system: 23 representatives of normal gut flora; assay: CLSI MIC, whole panel of representative gut bacteria; assay type: cell-based; conditions: at 64 μg/mL
[6] = test system: Clostridium ramosum DSM 1402
[7] = test system: Enterococcus faecalis ATCC 29212
[8] = test system: Citrobacter koseri Clinical
[9] = test system: Corynebacterium urealyticum NCTC 12011
[10] = test system: Pseudomonas aeruginosa NCTC 13437
[11] = test system: C. difficile ATCC 43255 (aka VPI 10463; ribotype 087); assay: Mouse model of C. difficile-associated disease; assay type: in vivo, C57BL/6 mice
[12] = test system: Bifidobacterium bifidum ATCC 11863
[13] = test system: Enterococcus faecium NCTC 12204
Clostridium scindens = assay: Growth of Clostridium scindens (separate study); assay type: cell-based; conditions: at 80.0 μg/mL
Excerpt: It is known that the presence of Clostridium scindens in the gut can help to keep Clostridium difficile at bay. […] This would not be the case if a broad-spectrum antibiotic, such as vancomycin or metronidazole, was to be used. The lack of activity against Clostridium scindens would, therefore, further help the gut to recover from Clostridium difficile infection.

[14] = test system: Pseudomonas aeruginosa ATCC 27853
[15] = test system: Corynebacterium striatium NCTC 764
[16] = test system: Lactobacillus rhamnosus ATCC 53103
[17] = test system: Propionibacterium acnes ATCC 6919
[18] = test system: Clostridium difficile strains (21 clinical, 7 reference)
[19] = test system: Clostridium innocuum DSM 1286
[20] = test system: Corynebacterium jeikeium NCTC 11914
[21] = mice
Experimental: In this study, a single oral dose of compound 3 in 0.5% w/v aqueous methylcellulose at 5 mg/kg was administered to nine mice in a 10 mL/kg dosing volume and housed in metabolism cages. Following administration of the compound, serial blood samples of 50 μL was taken from the lateral tail vein at each of 7 post-dosing time-points (0.25, 0.5, 1, 2, 4, 7 and 24 h). Whole blood samples were then diluted 1:1 with water and two 40 μL aliquots were pipetted into duplicate 96 well plate tubes. At the end of 24 h, all faecal samples were collected and pooled. A quantitative bioanalysis by LC-MS/MS of the blood and faecal levels of compound 3 was carried out to determine the oral absorbability and gastrointestinal metabolic stability of compound 3.
To evaluate the metabolic stability of orally administered compound 3, metabolite profiling of the faecal sample was performed.

[22] = test system: Staphylococcus aureus ATCC 29213

Compound: C/C=C1\NC(=O)[C@@H](C)NC(=O)CNC(=O)[C@H](Cc2c[nH]c3cccc(Br)c23)NC(=O)[C@H](Cc2c[nH]c3ccccc23)NC(=O)c2csc(n2)[C@@H](C)NC(=O)CN(C)C1=O [Compound 10, Cyclo[D-Ala-Thz-Trp-Trp(4-Br)-Gly-D-Ala-Dhb-Sar]] (cyclo([Dhb][Sar][dAla(ψthiazole)]W[Trp(4-Br)]G[dA]))
- hamsters that succumbed to the disease within 36 hours post-infection ([1]; 0.2 mg/kg): 100%
- Mean survival ([1]; 0.2 mg/kg oral twice daily for 5 days): 35.75 h
- animals reaching the end of the study at day-21 post-infection ([1]; 1.0 mg/kg and 2.5 mg/kg twice daily): 10%
- Mean survival ([1]; 1.0 mg/kg oral twice daily for 5 days): 155 h and 154.63 h
- average survival ([1]; 1.0 mg/kg twice daily): 6.5 days
- increase in survival time compared to vehicle control ([1]; 1.0 mg/kg twice daily): 4.7 fold
- Mean survival ([1]; 2.5 mg/kg oral twice daily for 5 days): 206 h and 205.92 h
- average survival ([1]; 2.5 mg/kg twice daily): 8.5 days
- increase in survival time compared to vehicle control ([1]; 2.5 mg/kg twice daily): 6.3 fold
- survival at day 6 post-infection ([1]; 2.5 mg/kg twice daily): 100%
- survival time compared to the vehicle control ([1]; 0.2, 1.0 and 2.5 mg/kg, non-optimised doses): significant dose dependent increase in survival time
- MIC [2]: >64 µg/mL
- MIC [3]: > 64 µg/mL
- MIC [4]: >64 µg/mL
- share of the 23 representatives of normal gut flora that are insensitive [5]: Approximately 90%
- MIC [6]: >64 µg/mL
- MIC [7]: >64 µg/mL
- MIC [8]: >64 µg/mL
- MIC [9]: >64 µg/mL
- MIC [10]: >64 µg/mL
- survival to the end of the study at day-21 post-infection ([11]; 1 mg/kg): 80%
- Mean survival ([11]; 1 mg/kg oral BD for 5 days): 504.00 h
- survival to the end of the study at day-21 post-infection ([11]; 2.5 mg/kg): 70%
- Mean survival ([11]; 2.5 mg/kg oral BD for 5 days): 504.00 h
- reduction in C. difficile spore burden in the caecum vs vehicle controls ([11]; 5 mg/kg): 1.73 Log10 spore/mL
- reduction in C. difficile spore burden in the colon vs vehicle controls ([11]; 5 mg/kg): 1.11 Log10 spore/mL
- survival to the end of the study at day-21 post-infection ([11]; 5 mg/kg): 90%
- Mean survival ([11]; 5 mg/kg oral BD for 5 days): 504.00 h
- MIC [12]: >64 µg/mL
- IC50 (B. multivorans ATCC17616; ATCC17616, 25 h): 0.84 ± 0.1 µM
- times more potent than Argyrin A (B. multivorans ATCC17616; against B. multivorans): 4 to 5
- MIC [13]: >64 µg/mL
- growth of Clostridium scindens (Clostridium scindens): unaffected
- MIC [14]: >64 µg/mL
- MIC [15]: >64 µg/mL
- MIC [16]: >64 µg/mL
- MIC [17]: >64 µg/mL
- MIC40 ([18]; 28 C. difficile strains): 0.25 µg/mL (≈ 0.282 µM)
- MIC50 ([18]; 28 C. difficile strains): 0.50 µg/mL (≈ 0.563 µM)
- MIC90 ([18]; 28 C. difficile strains): 0.50 µg/mL (≈ 0.563 µM)
- MIC ([18]; C. difficile strain 630 (ribotype 012)): 0.25 µg/mL (≈ 0.282 µM)
- MIC ([18]; C. difficile strain ATCC 9689 (ribotype 001)): 0.5 µg/mL (≈ 0.563 µM)
- MIC ([18]; C. difficile strain ATCC 13366): 1 µg/mL (≈ 1.13 µM)
- MIC ([18]; C. difficile strain ATCC 43255): 0.25 µg/mL (≈ 0.282 µM)
- MIC ([18]; C. difficile strain ATCC 700057 (ribotype 038)): 0.25 µg/mL (≈ 0.282 µM)
- MIC ([18]; C. difficile strain ATCC BAA 1875 (ribotype 078)): 0.5 µg/mL (≈ 0.563 µM)
- MIC ([18]; C. difficile strain BI1-FDX^R): 0.25 µg/mL (≈ 0.282 µM)
- MIC ([18]; C. difficile strain Clin. 1): 0.25 µg/mL (≈ 0.282 µM)
- MIC ([18]; C. difficile strain Clin. 2): 0.5 µg/mL (≈ 0.563 µM)
- MIC ([18]; C. difficile strain Clin. 3): 0.25 µg/mL (≈ 0.282 µM)
- MIC ([18]; C. difficile strain Clin. 5): 0.5 µg/mL (≈ 0.563 µM)
- MIC ([18]; C. difficile strain Clin. 6): 0.5 µg/mL (≈ 0.563 µM)
- MIC ([18]; C. difficile strain Clin. 7): 0.25 µg/mL (≈ 0.282 µM)
- MIC ([18]; C. difficile strain Clin. 8): 0.5 µg/mL (≈ 0.563 µM)
- MIC ([18]; C. difficile strain Clin. 9): 0.5 µg/mL (≈ 0.563 µM)
- MIC ([18]; C. difficile strain Clin. 10): 0.25 µg/mL (≈ 0.282 µM)
- MIC ([18]; C. difficile strain Clin. 11): 0.5 µg/mL (≈ 0.563 µM)
- MIC ([18]; C. difficile strain Clin. 12): 0.25 µg/mL (≈ 0.282 µM)
- MIC ([18]; C. difficile strain Clin. 13): 0.5 µg/mL (≈ 0.563 µM)
- MIC ([18]; C. difficile strain Clin. 14): 0.5 µg/mL (≈ 0.563 µM)
- MIC ([18]; C. difficile strain Clin. 15): 0.5 µg/mL (≈ 0.563 µM)
- MIC ([18]; C. difficile strain Clin. 16): 0.25 µg/mL (≈ 0.282 µM)
- MIC ([18]; C. difficile strain Clin. 18): 0.5 µg/mL (≈ 0.563 µM)
- MIC ([18]; C. difficile strain Clin. 20): 0.25 µg/mL (≈ 0.282 µM)
- MIC ([18]; C. difficile strain Clin. 21): 0.5 µg/mL (≈ 0.563 µM)
- MIC ([18]; C. difficile strain Clin. 22): 0.5 µg/mL (≈ 0.563 µM)
- MIC ([18]; C. difficile strain Clin. 23): 0.5 µg/mL (≈ 0.563 µM)
- MIC ([18]; C. difficile strain Clin. 24): 0.25 µg/mL (≈ 0.282 µM)
- share of the C. difficile strains tested that are susceptible ([18]; at 0.25 μg/mL): 43%
- MIC against C. difficile ([18]; range over strains): 0.25 to 0.50 µg/mL
- MIC [19]: >64 µg/mL
- MIC [20]: >64 µg/mL
- activity against P. aeruginosa in comparison to the Dha containing compound 3 (P. aeruginosa PAO1; PAO1): three-fold increase in activity
- IC50 (P. aeruginosa PAO1; PAO1, 13 h): 3.7 ± 1 µM
- % Growth inhibition at 100 μM (P. aeruginosa PAO1; PAO1, 13 h, 100): 90.6 ± 1.3%
- times more potent than Argyrin A (P. aeruginosa PAO1; against P. aeruginosa): 4 to 5
- compound recovered from pooled faeces ([21]; oral 5 mg/kg, 24 h): up to 90%
- faecal concentration, times above the MIC against C. difficile ([21]; single 5 mg/kg oral dose): more than 200
- MIC [22]: >64 µg/mL
